Results from patent publication US20240307426A1, “USE OF SGLT-2 INHIBITORS FOR THE PREVENTION AND/OR TREATMENT OF RENAL DISEASES IN NON-HUMAN MAMMALS” (BOEHRINGER INGELHEIM VETMEDICA GMBH, priority 2021, published 2024).

System: cats with chronic kidney disease (CKD)
Test: Exploratory clinical field trial in cats with CKD (Example 3)
Format: in vivo, cat
Set-up: key to IRIS Stage (based on serum creatinine level) / IRIS Stage (based on creatinine level) / IRIS Stage (based on the creatinine level): IRIS CKD stage assigned from serum creatinine (IRIS 2019)
Conditions: for Phosphorus: ref 0.8-2.2; for Serum creatinine: ref 0.9-2.3; for Potassium: ref 3.3-5.8; for Hematocrit: ref 28.2-52.7; for UPC: ref <0.33
Procedure: The clinical trial was conducted at three animal clinics. Overall, 9 cats with chronic kidney disease (CKD) were included in the study and treated once daily orally with 1 mg/kg bodyweight velagliflozin for up to 150 days (depending on the time of enrollment).
Diagnosis of CKD was based on two measurements of serum creatinine concentration at least 2 weeks apart from each other (historical value and screening, and value at screening in fasted cats), as recommended by the International Renal Interest Society (IRIS 2019). In order to qualify for enrollment, serum creatinine levels needed to be ≥2.2 mg/dL, but <5.0 mg/dL.
Disease staging throughout the study was performed based on serum creatinine levels in accordance with the IRIS CKD staging (IRIS 2019).
All other cats were treated for >90 days had at least data for two time points under treatment available and were therefore evaluated. Progression of the disease, as well as IRIS staging in this study was based on the most reliable biomarker: serum creatinine.

[1] = case 200-006, Visit 2 (Day 90), 1 mg/kg po once daily
[2] = case 200-006, Visit 3 (Day 121), 1 mg/kg po once daily
[3] = case 200-006, screening visit (before treatment)
[4] = case 200-007, 1 mg/kg po once daily
[5] = case 200-007, 1 mg/kg po once daily, whole study
[6] = case 200-007, Visit 1 (Day 30), 1 mg/kg po once daily
[7] = case 200-007, Visit 2 (Day 90), 1 mg/kg po once daily
[8] = case 200-007, Visit 3 (Day 114), 1 mg/kg po once daily
[9] = case 200-007, screening visit (before treatment)
[10] = case 300-003 (IRIS stage 2), removed early on day 30
[11] = case 300-008, 1 mg/kg po once daily
[12] = case 300-008, 1 mg/kg po once daily, whole study
[13] = case 300-008, Visit 1 (Day 30), 1 mg/kg po once daily
[14] = case 300-008, Visit 2 (Day 90), 1 mg/kg po once daily
[15] = case 300-008, Visit 3 (Day 103), 1 mg/kg po once daily
[16] = case 300-008, screening visit (before treatment)
[17] = case 400-004, 1 mg/kg po once daily
[18] = case 400-004, 1 mg/kg po once daily, whole study
[19] = case 400-004, Visit 1 (Day 30), 1 mg/kg po once daily
[20] = case 400-004, Visit 2 (Day 90), 1 mg/kg po once daily
[21] = case 400-004, Visit 3 (Day 119), 1 mg/kg po once daily
[22] = case 400-004, screening visit (before treatment)

N#Cc1ccc([C@@H]2O[C@H](CO)[C@@H](O)[C@H](O)[C@H]2O)cc1Cc1ccc(C2CC2)cc1 [velagliflozin, Velagliflozin]
Systolic blood pressure [1]: 155.3 mmHg
Phosphorus [1]: 1.3 mmol/L
Serum creatinine [1]: 2.7 mg/dL
Potassium [1]: 4.4 mmol/L
Hematocrit [1]: 37.3%
UPC [1]: 0.2
BUN [2]: 42 mg/dL
IRIS Stage (based on the creatinine level) [2]: 2
Owner assessment - quality of life [2]: good
Owner assessment of the appetite [2]: normal
Owner assessment of the drinking behavior [2]: excessive
Systolic blood pressure [2]: 140.0 mmHg
Phosphorus [2]: 2.0 mmol/L
Serum creatinine [2]: 2.8 mg/dL
Potassium [2]: 4.3 mmol/L
Hematocrit [2]: 35.5%
BUN [3]: 34 mg/dL
IRIS Stage (based on the creatinine level) [3]: 2
Owner assessment - quality of life [3]: good
Owner assessment of the appetite [3]: poor
Owner assessment of the drinking behavior [3]: excessive
Systolic blood pressure [3]: 141.3 mmHg
Phosphorus [3]: 1.3 mmol/L
Serum creatinine [3]: 2.6 mg/dL
Potassium [3]: 3.8 mmol/L
Hematocrit [3]: 37.9%
UPC [3]: 0.1
adverse events [4]: three occasions of vomitus, two occasions of inappetence and one occasion of mild anaemia, leukocytopenia
expected glucosuric effect [4]: confirmed
Serum creatinine levels (course) [5]: increased mildly
Serum potassium levels (course) [5]: remained stable within the reference range
Total urine protein and UPC [5]: mildly increased
drinking behavior (course) [5]: improved to normal
quality of life (course) [5]: changed from very good to good
the cat's condition [5]: stable
BUN [6]: 40 mg/dL
IRIS Stage (based on the creatinine level) [6]: 3
Owner assessment - quality of life [6]: very good
Owner assessment of the appetite [6]: normal
Owner assessment of the drinking behavior [6]: normal
Systolic blood pressure [6]: 122.7 mmHg
Phosphorus [6]: 1.0 mmol/L
Serum creatinine [6]: 3.2 mg/dL
Potassium [6]: 4.0 mmol/L
Hematocrit [6]: 35.9%
BUN [7]: 42 mg/dL
IRIS Stage (based on the creatinine level) [7]: 3
Owner assessment - quality of life [7]: good
Owner assessment of the appetite [7]: normal
Owner assessment of the drinking behavior [7]: normal
Systolic blood pressure [7]: 130.7 mmHg
Phosphorus [7]: 1.3 mmol/L
Serum creatinine [7]: 3.3 mg/dL
Potassium [7]: 4.4 mmol/L
Hematocrit [7]: 32.6%
UPC [7]: 0.2
BUN [8]: 43 mg/dL
IRIS Stage (based on the creatinine level) [8]: 3
Owner assessment - quality of life [8]: good
Owner assessment of the appetite [8]: normal
Owner assessment of the drinking behavior [8]: normal
Systolic blood pressure [8]: 130.7 mmHg
Phosphorus [8]: 1.3 mmol/L
Serum creatinine [8]: 3.2 mg/dL
Potassium [8]: 3.9 mmol/L
Hematocrit [8]: 28.9%
BUN [9]: 41 mg/dL
IRIS Stage (based on the creatinine level) [9]: 3
Owner assessment - quality of life [9]: very good
Owner assessment of the appetite [9]: normal
Owner assessment of the drinking behavior [9]: excessive
Systolic blood pressure [9]: 139.3 mmHg
Phosphorus [9]: 1.2 mmol/L
Serum creatinine [9]: 2.9 mg/dL
Potassium [9]: 4.4 mmol/L
Hematocrit [9]: 37.6%
UPC [9]: 0.1
evaluated clinical signs [10]: no worsening of the evaluated clinical signs
laboratory parameters [10]: stable laboratory parameters
reported events [10]: Tooth pain, anorexia and feline odontoclastic-resorptive lesions (FORL) were reported
adverse events [11]: No adverse event was reported
expected glucosuric effect [11]: confirmed
Drinking behavior according to owner's assessment (course) [12]: improved from excessive to normal
condition (clinical signs and biochemical parameters) [12]: stabilization of the condition
course of serum creatinine concentration [12]: remained stable
serum potassium and phosphate levels [12]: remained in the reference range
total urine protein and UPC ratio [12]: remained within the reference range
BUN [13]: 65 mg/dL
IRIS Stage (based on creatinine level) [13]: 2
Owner assessment - quality of life [13]: good
Owner assessment of the appetite [13]: poor
Owner assessment of the drinking behavior [13]: normal
Systolic blood pressure [13]: 150.0 mmHg
Phosphorus [13]: 1.4 mmol/L
Serum creatinine [13]: 1.9 mg/dL
Potassium [13]: 4.9 mmol/L
Hematocrit [13]: 28.8%
BUN [14]: 64 mg/dL
IRIS Stage (based on creatinine level) [14]: 2
Owner assessment - quality of life [14]: good
Owner assessment of the appetite [14]: normal
Systolic blood pressure [14]: 150.0 mmHg
Phosphorus [14]: 1.5 mmol/L
Serum creatinine [14]: 2.4 mg/dL
Potassium [14]: 4.4 mmol/L
Hematocrit [14]: 32.4%
UPC [14]: 0.2
BUN [15]: 54 mg/dL
IRIS Stage (based on creatinine level) [15]: 2
Owner assessment - quality of life [15]: good
Owner assessment of the appetite [15]: normal
Owner assessment of the drinking behavior [15]: normal
Systolic blood pressure [15]: 148.7 mmHg
Phosphorus [15]: 1.6 mmol/L
Serum creatinine [15]: 2.6 mg/dL
Potassium [15]: 4.4 mmol/L
Hematocrit [15]: 28.2%
UPC [15]: 0.3
BUN [16]: 36 mg/dL
IRIS Stage (based on creatinine level) [16]: 2
Owner assessment - quality of life [16]: good
Owner assessment of the appetite [16]: normal
Owner assessment of the drinking behavior [16]: excessive
Systolic blood pressure [16]: 148.0 mmHg
Phosphorus [16]: 1.3 mmol/L
Serum creatinine [16]: 2.4 mg/dL
Potassium [16]: 4.9 mmol/L
Hematocrit [16]: 26.7%
UPC [16]: 0.2
adverse events [17]: One non-serious adverse event was reported (owner reported diarrhea)
expected glucosuric effect [17]: confirmed
Drinking behavior according to the owner (course) [18]: improved from excessive to normal
UPC ratio (course) [18]: remained in the normal range
condition (clinical signs and biochemical parameters) [18]: improvement of the condition
course of BUN concentration [18]: decrease
course of serum creatinine concentration [18]: decrease
serum potassium and phosphate levels [18]: remained within the reference range
total urine protein [18]: reduced
BUN [19]: 20.0 mg/dL
IRIS Stage (based on serum creatinine level) [19]: 3
Owner assessment - quality of life [19]: good
Owner assessment of the appetite [19]: normal
Owner assessment of the drinking behavior [19]: normal
Systolic blood pressure [19]: 142.7 mmHg
Phosphorus [19]: 1.3 mmol/L
Serum creatinine [19]: 4.0 mg/dL
Potassium [19]: 3.9 mmol/L
Hematocrit [19]: 41.0%
BUN [20]: 19.3 mg/dL
IRIS Stage (based on serum creatinine level) [20]: 3
Owner assessment - quality of life [20]: good
Owner assessment of the appetite [20]: poor
Owner assessment of the drinking behavior [20]: normal
Systolic blood pressure [20]: 157.3 mmHg
Phosphorus [20]: 1.3 mmol/L
Serum creatinine [20]: 3.2 mg/dL
Potassium [20]: 3.8 mmol/L
Hematocrit [20]: 45.0%
UPC [20]: 0.1
BUN [21]: 24.3 mg/dL
IRIS Stage (based on serum creatinine level) [21]: 3
Owner assessment - quality of life [21]: good
Owner assessment of the appetite [21]: normal
Owner assessment of the drinking behavior [21]: normal
Systolic blood pressure [21]: 149.3 mmHg
Phosphorus [21]: 1.5 mmol/L
Serum creatinine [21]: 2.9 mg/dL
Potassium [21]: 4.0 mmol/L
Hematocrit [21]: 45.0%
BUN [22]: 20.2 mg/dL
IRIS Stage (based on serum creatinine level) [22]: 3
Owner assessment - quality of life [22]: good
Owner assessment of the appetite [22]: normal
Owner assessment of the drinking behavior [22]: excessive
Systolic blood pressure [22]: 151.3 mmHg
Phosphorus [22]: 1.4 mmol/L
Serum creatinine [22]: 4.2 mg/dL
Potassium [22]: 4.3 mmol/L
Hematocrit [22]: 44.0%
UPC [22]: 0.1
Clinical signs related to CKD (evaluated cats, 1 mg/kg po once daily): either remained good/stable or improved in the majority of cats
risk factors for progression of the disease (e.g. UPC, blood pressure, potassium, phosphorus) (feline CKD patients, 1 mg/kg orally once daily): remained stable and within the reference range
IRIS staging (one of the 3 cats with decreased serum creatinine (stage 3->stage 2)): improved by one category
complications of CKD (oral 1 mg/kg bodyweight once daily, evaluated cats): no complications of CKD observed
laboratory parameters related to CKD (serum creatinine) and clinical signs (the other 4 of seven evaluated cats): stable condition
